In paper PMC8268022, “Loureirin B Exerts its Immunosuppressive Effects by Inhibiting STIM1/Orai1 and KV1.3 Channels” (Frontiers in Pharmacology, 2021) one finds IC50 data, which are given here for 1 molecule.

This assay deals with T1, Orai1 (STIM1/Orai1 channel, CRAC channel) (Homo sapiens, UniProt Q96D31).
T1 construct: with STIM1
Nature of the assay: whole-cell patch clamp of STIM1/Orai1 currents in transfected HEK293T cells. The class given is cell-based.

T1 sequence (Q96D31 whole entry): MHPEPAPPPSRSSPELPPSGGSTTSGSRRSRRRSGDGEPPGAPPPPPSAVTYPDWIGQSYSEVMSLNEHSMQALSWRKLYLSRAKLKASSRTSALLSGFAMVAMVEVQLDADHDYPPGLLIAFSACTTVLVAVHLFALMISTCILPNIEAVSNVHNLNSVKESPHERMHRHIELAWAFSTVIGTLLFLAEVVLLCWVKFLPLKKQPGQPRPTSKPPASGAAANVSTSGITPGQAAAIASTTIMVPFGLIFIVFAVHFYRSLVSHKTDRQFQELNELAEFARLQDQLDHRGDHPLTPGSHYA
T1 sequence (Q13586 23-685 partner): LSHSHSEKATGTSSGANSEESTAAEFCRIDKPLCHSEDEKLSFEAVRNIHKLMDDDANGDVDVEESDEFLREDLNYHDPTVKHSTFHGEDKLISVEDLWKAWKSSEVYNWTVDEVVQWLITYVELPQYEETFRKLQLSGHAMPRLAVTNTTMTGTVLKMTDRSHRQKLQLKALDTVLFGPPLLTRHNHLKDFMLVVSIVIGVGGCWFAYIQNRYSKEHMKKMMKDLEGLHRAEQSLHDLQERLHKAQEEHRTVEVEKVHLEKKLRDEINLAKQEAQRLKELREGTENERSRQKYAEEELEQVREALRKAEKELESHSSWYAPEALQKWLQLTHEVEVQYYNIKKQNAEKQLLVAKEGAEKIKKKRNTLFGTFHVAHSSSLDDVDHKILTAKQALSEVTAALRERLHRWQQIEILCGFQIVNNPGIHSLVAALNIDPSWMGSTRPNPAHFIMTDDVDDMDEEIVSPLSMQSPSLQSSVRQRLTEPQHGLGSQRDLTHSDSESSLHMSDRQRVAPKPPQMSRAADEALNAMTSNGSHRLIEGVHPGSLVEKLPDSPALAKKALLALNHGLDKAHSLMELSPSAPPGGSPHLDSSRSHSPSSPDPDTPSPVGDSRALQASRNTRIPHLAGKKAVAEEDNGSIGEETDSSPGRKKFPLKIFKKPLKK

`COc1cc(OC)c(CCC(=O)c2ccc(O)cc2)c(OC)c1` [LrB, Loureirin B] came in with an IC50 of 17.1 ± 2.17 µM.
